The subject of data set [1] is STAT3 phosphorylation (Ser727). Nature of the data set: STAT3 phosphorylation in brain homogenates of IL-6/MIA adult offspring, Western blot. The class given is in vivo, mice. The following applies: maternal co-treatment with S31-201 or diosmin vs IL-6 only; P<0.005. The protocol:
(§1) Cultured cells were lysed in ice-cold lysis buffer (20 mM Tris, pH 7.5, 150 mM NaCl, 1 mM EDTA, 1 mM EGTA, 1% v/v Triton X-100, 2.5 mM sodium pyrophosphate, 1 mM β-glycerolphosphate, 1 mM Na3VO4, 1 μg/mL leupeptin, 1 mM PMSF) as described previously (Tan et al. 2002). Mouse brains were isolated under sterile conditions on ice and placed in ice-cold lysis buffer. Brains were then sonicated on ice for approximately 3 min, allowed to stand for 15 min at 4° C., then centrifuged at 15,000 rpm for 15 min at 4° C. Total protein content was estimated using the BCA protein assay (Pierce Biotechnology) and aliquots corresponding to 100 μg of total protein were electrophoretically separated using 10% Tris gels. Electrophoresed proteins were then transferred to nitrocellulose membranes (Bio-Rad, Richmond, Calif.), washed in Tris buffered saline with 0.1% Tween-20 (TBS/T), and blocked for 1 h at ambient temperature in TBS/T containing 5% (w/v) non-fat dry milk. After blocking, membranes were hybridized overnight at 4° C. with various primary antibodies. Membranes were then washed 3× for 5 min each in TBS/T and incubated for 1 h at ambient temperature with the appropriate HRP-conjugated secondary antibody (1:1000, Pierce Biotechnology). […] Densitometric analysis was conducted using a FluorS Multiimager with Quantity One™ software (Bio-Rad, Hercules, Calif.). […]

The subject of data set [2] is TNF-α. The data set can be described thus: TNF-α ELISA in brain homogenates of IL-6/MIA adult offspring. The class given is in vivo, mice. The settings on record: maternal co-treatment with S31-201 or diosmin vs IL-6 only; P<0.05. On the procedure: (§2) Mouse brain homogenates were prepared as described above and used at a dilution of 1:10 in PBS for these assays. Brain tissue-solubilized cytokines were quantified using commercially available ELISAs that allow for detection of IL-1β, and TNF-α. Cytokine detection was carried out according to the manufacturer's instruction. Total protein content was determined as described above and data represented as pg of cytokine/mg total cellular protein for each cytokine.
(§3) At sacrifice, brain homogenates were prepared from offspring of mice treated with IL-6, IL-6/S31-201, IL-6/Diosmin or PBS (control) (n=8, 4 female/4 male). Pro-inflammatory cytokine analysis by ELISA was conducted on these mouse brain homogenates. Data are represented as mean±SD of each cytokine in brain homogenates (pg/mg total protein) from these mice.

The test system of data set [3] is IL-1β. The data set can be described thus: IL-1β ELISA in brain homogenates of IL-6/MIA adult offspring. The settings on record: maternal co-treatment with S31-201 or diosmin vs IL-6 only; P<0.05. The class given is in vivo, mice. On the procedure:
as §2, §3
For orientation: ELISA stands for enzyme-linked immunosorbent assay.

The subject of data set [4] is IL-6 induced STAT3 phosphorylation. Nature of the data set: STAT3 phosphorylation in brain homogenates of IL-6/MIA newborn mice, Western blot. The class given is in vivo. The following applies: dams IL-6 5 μg i.p. at E12.5; S31-201 4 μg i.p. or diosmin 10 mg/kg/day oral; vs IL-6 only, P<0.005. The protocol:
as §1

Data set [5] relates to TNF-α. Nature of the data set: TNF-α ELISA in brain homogenates of IL-6/MIA newborn mice. In kind it is in vivo. The settings on record: dams IL-6 5 μg i.p.; S31-201 4 μg i.p. or diosmin 10 mg/kg/day oral; P<0.01. The protocol: as §2
(§4) Pro-inflammatory cytokine analysis by ELISA was conducted on these newborn mouse brain homogenates. Data are represented as mean±SD of each cytokine in brain homogenates (pg/mg total protein) from these newborn mice.

Data set [6] has as its system IL-6/MIA adult offspring. The following applies: for open-field test, entries into the center: adult offspring of IL-6 treated dams co-treated with S31-201 4 μg i.p. or diosmin 10 mg/kg/day oral, P<0.01. On the procedure:
Pregnant C57BL/6 mice, embryonic day 2 (E2) were obtained from Jackson Laboratory (Bar Harbor, […].) and individually housed and maintained in an animal facility of the University of South Florida (USF). All subsequent experiments were performed in compliance with protocols approved by the USF Institutional Animal Care and Use Committee. […] Intraperitoneal PBS injection (200 μL) was used as the control for IL-6 administration. Open field (OF)—The OF behavioral analysis is a test of both locomotor activity and emotionality in rodents (Radyushkin et al. 2009). Mice were placed in a 50×50 cm white Plexiglas box brightly lit by fluorescent room lighting and six 60 W incandescent bulbs approximately 1.5 m above the box. Activity was recorded by a ceiling-mounted video camera and analyzed from digital video files either by the automated tracking capabilities of Ethovision or counted using the behavior tracker (version 1.5, www.behaviortracker.com), a software-based event-recorder. The total distance moved and numbers of entries into the center of the arena (central 17 cm square) were determined in a 10 minute session. […] We also treated control mice (non-IL-6 treated) with the STAT3 inhibitor, S31. […] (10 mg/kg/day)]. […] Heightened anxiety and social interaction deficits are hallmarks of schizophrenia and autism. Reluctance to enter the center portion of a well-lit open field is usually taken as a measure of heightened anxiety under mildly stressful conditions (Smith et al., 2007).

Data set [7] concerns IL-1β. The data set can be described thus: IL-1β ELISA in brain homogenates of IL-6/MIA newborn mice. The following applies: dams IL-6 5 μg i.p.; S31-201 4 μg i.p. or diosmin 10 mg/kg/day oral; P<0.01. The class given is in vivo. On the procedure: as §2, §4
Data set [8] relates to IL-6/MIA adult offspring. The data set can be described thus: Social interaction test in IL-6/MIA adult offspring. In kind it is in vivo, mice. The following applies: for social interaction test, sniffing time: maternal S31-201 or diosmin vs IL-6/MIA, P<0.05; for social interaction test, social impairment (preference for the social chamber): maternal co-treatment with S31-201 4 μg i.p. or diosmin 10 mg/kg/day oral, P<0.005. On the procedure:
Pregnant C57BL/6 mice, embryonic day 2 (E2) were obtained from Jackson Laboratory (Bar Harbor, […].) and individually housed and maintained in an animal facility of the University of South Florida (USF). All subsequent experiments were performed in compliance with protocols approved by the USF Institutional Animal Care and Use Committee. […] Intraperitoneal PBS injection (200 μL) was used as the control for IL-6 administration. Social interaction (SI)—The testing apparatus consisted of a 60×40 cm Plexiglas box divided into three chambers. Mice were able to move between chambers through a small opening (6×6 cm) in the dividers. Plastic cylinders in each of the two side chambers contained the probe mice, and numerous 1 cm holes in the cylinders enabled test and probe mice to contact each other. Test mice were placed in the center chamber, with an overhead camera recording their movements. Mice were allowed 5 min of exploration time in the box, after which an unfamiliar, same-sex probe mouse from the same experimental group was placed in one of two restraining cylinders (Radyushkin et al. 2009). The Ethovision software (Noldus, Leesburg, Va.) program measured time spent in each of the three chambers, and social preference was defined as follows: (% time spent in the social chamber)−(% time spent in the opposite chamber). […] We also treated control mice (non-IL-6 treated) with the STAT3 inhibitor, S31. […] (10 mg/kg/day)]. […] Heightened anxiety and social interaction deficits are hallmarks of schizophrenia and autism. Reluctance to enter the center portion of a well-lit open field is usually taken as a measure of heightened anxiety under mildly stressful conditions (Smith et al., 2007).

Data set [9] concerns IL-6 induced JAK2 phosphorylation. The data set can be described thus: JAK2 phosphorylation in brain homogenates of IL-6/MIA newborn mice, Western blot. In kind it is in vivo. The following applies: dams IL-6 5 μg i.p. at E12.5; S31-201 4 μg i.p. or diosmin 10 mg/kg/day oral; vs IL-6 only, P<0.005. The protocol: as §1
For orientation: A western blot detects proteins with antibodies after separation by electrophoresis.

For data set [10] the following is noted: after intestinal transformation of diosmin to diosmetin and absorption; cited from earlier work.
Data set [11] has as its system STAT3 activation/phosphorylation induced by IL-6. Nature of the data set: STAT3 activation induced by IL-6 in cultured neuronal cells (PC12 and N2a), Western blot. In kind it is cell-based. The settings on record: dose-dependent.
Data set [12] has as its system IL-6 induced STAT3 phosphorylation (Ser727). Nature of the data set: IL-6 induced STAT3 phosphorylation in N2a and primary neuronal cells, Western blot. The class given is cell-based, murine. The following applies: IL-6 50 ng/mL, 30 min. The protocol: (§5) Cerebral cortices were isolated from C57BL/6 mouse embryos, between 15 and 17 days in utero. After 15 min of incubation in trypsin (0.25%) at 37° C., individual cortices were mechanically dissociated. Cells were collected after centrifugation at 1200 rpm, resuspended in DMEM supplemented with 10% fetal calf serum, 10% horse serum, uridine ([…]; Sigma) and fluorodeoxyuridine ([…]; Sigma), and plated in 24 well collagen coated culture plates at a density of 2.5×10^5 cells per well.
(§6) N2a (murine neuroblastoma) cells, purchased from the American Type Culture Collection (ATCC, Manassas, Va.) were grown in complete EMEM supplemented with 10% fetal calf serum. Cells were plated in 24 well collagen coating culture plates at a density of 1×10^5 cells per well. After overnight incubation, N2a cells were incubated in neurobasal media supplemented with 3 mM dibutyryl cAMP in preparation for treatment. […]
(§7) Cultured cells were lysed in ice-cold lysis buffer (20 mM Tris, pH 7.5, 150 mM NaCl, 1 mM EDTA, 1 mM EGTA, 1% v/v Triton X-100, 2.5 mM sodium pyrophosphate, 1 mM β-glycerolphosphate, 1 mM Na3VO4, 1 μg/mL leupeptin, 1 mM PMSF) as described previously (Tan et al. 2002). […] Densitometric analysis was conducted using a FluorS Multiimager with Quantity One™ software (Bio-Rad, Hercules, Calif.). […]

Data set [13] relates to IL-6 induced JAK2 phosphorylation. The data set can be described thus: IL-6 induced JAK2 phosphorylation in N2a and primary neuronal cells, Western blot. The settings on record: IL-6 50 ng/mL, 30 min. In kind it is cell-based, murine. On the procedure: as §5, §6, §7
The conditions of data set [14]: 500-2,000 mg per day orally for up to one year; cited from earlier work.
Setting [15] is: dose dependent, N2a and primary neurons.

As to `Cc1ccc(S(=O)(=O)OCC(=O)Nc2ccc(C(=O)O)c(O)c2)cc1` [S31-201], in [1], the “STAT3 phosphorylation in adult offspring brain homogenates” value is given as “significant reduction”. Moreover, the “TNF-α cytokine level in adult offspring brain homogenates” value with TNF-α [2] is “significantly reduces”. Moreover, in the data set with IL-1β [3], the “IL-1β cytokine level in adult offspring brain homogenates” value is reported as “significantly reduces”. For the same molecule, the “IL-6 induced STAT3 phosphorylation in newborn brain homogenates” value in data set [4] is listed as “significantly reduce”. For the same molecule, the “reduction of the IL-6 induced increase in TNF-α level, newborn brain homogenates” value in the data set on TNF-α [5] is reported as around 50%. Also, in the data set with IL-6/MIA adult offspring [6], the “open-field test, entries into the center” value was “entering the center more often than IL-6 treated animals”. Besides, the “open-field behaviour, inhibitor-treated control (non-IL-6 injected) mice vs PBS-treated mice” value in the data set with IL-6/MIA adult offspring [6] (mouse, in vivo) was “did not find a significance”. Further, the “reduction of the IL-6 induced increase in IL-1β level, newborn brain homogenates” value in the data set with IL-1β [7] is around 50%. For the same molecule, in the data set with IL-6/MIA adult offspring [8], the “social interaction test, sniffing time” value was “increase in sniffing compared to IL-6/MIA mice” and the “social interaction test, social impairment (preference for the social chamber)” value is “significantly attenuated”. Besides, the “IL-6 induced JAK2 phosphorylation in newborn brain homogenates” value in [9] is “significantly reduce”.

As for `COc1ccc(-c2cc(=O)c3c(O)cc(O)cc3o2)cc1O` [diosmetin], in [10], the plasma half-life was 26 to 43 h.

As to `O=c1cc(-c2ccc(O)c(O)c2)oc2cc(O)cc(O)c12` [luteolin, 3′,4′,5,7-tetrahydroxyflavone], the “inhibition of activation/phosphorylation of STAT3 induced by IL-6” value in [11] is “inhibit activation/phosphorylation of STAT3”. Also, the “concentration at which significant reductions of STAT3 (Ser727) phosphorylation begin” value in [12] (setting [15]) came out at 10 µM. Also, the “effect on apoprotein level of STAT3” value in data set [12] (luteolin 0-20 μM) is reported as “did not affect”. For the same molecule, in data set [13] (setting [15]), the “concentration at which significant reductions of JAK2 phosphorylation begin” value turned out to be 10 µM. For the same molecule, the “effect on apoprotein level of JAK2” value in data set [13] (luteolin 0-20 μM) is “did not affect”.

Turning to `COc1ccc(-c2cc(=O)c3c(O)cc(O[C@@H]4O[C@H](CO[C@@H]5O[C@@H](C)[C@H](O)[C@@H](O)[C@H]5O)[C@@H](O)[C@H](O)[C@H]4O)cc3o2)cc1O` [diosmin], the “STAT3 phosphorylation in adult offspring brain homogenates” value in data set [1] was “significant reduction”. The “inhibition of activation/phosphorylation of STAT3 induced by IL-6” value in data set [11] is recorded as “inhibit activation/phosphorylation of STAT3”. Moreover, in the data set with TNF-α [2], the “TNF-α cytokine level in adult offspring brain homogenates” value is listed as “significantly reduces”. Moreover, the “IL-1β cytokine level in adult offspring brain homogenates” value in the data set on IL-1β [3] was “significantly reduces”. Moreover, in [4], the “IL-6 induced STAT3 phosphorylation in newborn brain homogenates” value is “significantly reduce”. In the data set on TNF-α [5], the “reduction of the IL-6 induced increase in TNF-α level, newborn brain homogenates” value is around 50%. Also, in the data set on IL-6/MIA adult offspring [6], the “open-field test, entries into the center” value is on record as “entering the center more often than IL-6 treated animals”. Further, the “reduction of the IL-6 induced increase in IL-1β level, newborn brain homogenates” value in the data set on IL-1β [7] is on record as around 50%. Also, the “safety and tolerability in clinical trials” value in [14] was “excellent safety profile and were well tolerated”. In the data set on IL-6/MIA adult offspring [8], the “social interaction test, sniffing time” value is “increase in sniffing compared to IL-6/MIA mice” and the “social interaction test, social impairment (preference for the social chamber)” value was “significantly attenuated”. Also, the “IL-6 induced JAK2 phosphorylation in newborn brain homogenates” value in data set [9] is “significantly reduce”.

Source of the values: patent US8778894B2, “Luteolin and diosmin/diosmetin as novel STAT3 inhibitors for treating autism” (University of South Florida, priority 2008, dated 2014).
